# Active and inactive are the calls of the source. No cut-off for these calls is given here.
# Legend:
# [1] = system: Mycobacterium tuberculosis; experiment: microbe, parasite or virus in culture; settings: H37Rv ATCC 27294, 192 h
# [2] = system: Mycolicibacterium smegmatis; experiment: Antitubercular activity against Mycobacterium smegmatis mc2155 ATCC 700084 cultured in GAST-Fe media incubated for 24 hrs by resazurin microtiter assay; format: functional
# Mycolicibacterium aurum [3] = experiment: Antimycobacterial activity against Mycobacterium aurum ATCC 10437 cultured in GAST-Fe media incubated for 72 hrs by resazurin microtiter assay; format: functional
# [4] = system: Mycobacterium tuberculosis; experiment: microbe, parasite or virus in culture; settings: H37Rv ATCC 27294, 192 h; remark: listed apart in the source
# [5] = system: Mycolicibacterium smegmatis; experiment: Antitubercular activity against Mycobacterium smegmatis mc2155 ATCC 700084 cultured in GAST media incubated for 24 hrs by resazurin microtiter assay; format: functional
# Mycolicibacterium aurum [6] = experiment: Antimycobacterial activity against Mycobacterium aurum ATCC 10437 cultured in GAST media incubated for 72 hrs by resazurin microtiter assay; format: functional
# [7] = Hepatic clearance in Sprague-Dawley rat at 1 mg/kg, iv; format: ADME, organism-based, Liver; settings: in vivo
# [8] = system: Mycolicibacterium smegmatis; experiment: Synergistic antibacterial activity against Mycobacterium smegmatis mc2155 ATCC 700084 assessed as fractional inhibitory concentration in presence of isoniazid by checker board assay; format: functional
# [9] = Oral bioavailability in Sprague-Dawley rat at 5 mg/kg; format: ADME, organism-based; settings: in vivo
# [10] = AUClast in Sprague-Dawley rat at 5 mg/kg, po; format: ADME, organism-based; parameters: time 0 - last, route oral, dose 5 mg/kg; settings: in vivo
# [11] = Selectivity index, ratio of GIC90 for cytotoxicity against mouse RAW264.7 cells to MIC90 for Antitubercular activity against Mycobacterium smegmatis mc2155 ATCC 700084; format: toxicity, cell-based; settings: read-out: Selectivity Index
# [12] = molecular target: T1, Salicyl-AMP ligase / salicyl-S-ArCP synthetase (Mycobacterium tuberculosis) (UniProt P71716); experiment: Binding affinity to Mycobacterium tuberculosis MbtA assessed as change in thermal stability at 100 uM incubated for 1 hr in presence of ATP at pH 7.5 by thermo fluorometer analysis
# T1 sequence (whole entry): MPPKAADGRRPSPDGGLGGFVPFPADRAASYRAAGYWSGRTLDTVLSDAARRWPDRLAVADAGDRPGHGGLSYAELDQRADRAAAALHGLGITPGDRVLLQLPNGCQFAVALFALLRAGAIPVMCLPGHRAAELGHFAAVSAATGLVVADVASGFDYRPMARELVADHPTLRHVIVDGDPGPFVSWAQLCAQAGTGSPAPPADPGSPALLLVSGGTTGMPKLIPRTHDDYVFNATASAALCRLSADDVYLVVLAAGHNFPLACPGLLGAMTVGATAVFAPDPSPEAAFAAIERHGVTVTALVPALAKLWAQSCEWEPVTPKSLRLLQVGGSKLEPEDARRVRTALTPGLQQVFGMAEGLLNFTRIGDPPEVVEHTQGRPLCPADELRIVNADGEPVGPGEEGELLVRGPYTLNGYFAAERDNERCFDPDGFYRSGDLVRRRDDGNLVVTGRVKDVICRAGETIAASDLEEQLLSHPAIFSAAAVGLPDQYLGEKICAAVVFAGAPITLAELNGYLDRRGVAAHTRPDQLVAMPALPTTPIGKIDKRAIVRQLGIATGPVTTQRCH
# [13] = system: Mycolicibacterium smegmatis; experiment: Bactericidal activity against Mycobacterium smegmatis mc2155 ATCC 700084 assessed as inhibition of bacterial growth preincubated for 48 hrs followed by agar surface scraped and transfer to GAST medium and measured after 5 days by HT-SPOTi assay; format: functional, organism-based; settings: time 7.0 day
# [14] = Tlast in Sprague-Dawley rat at 5 mg/kg, po; format: ADME, organism-based; settings: in vivo
# [15] = Cmax in Sprague-Dawley rat at 5 mg/kg, po; format: ADME, organism-based; parameters: route oral, dose 5 mg/kg; settings: in vivo
# RAW264.7 = experiment: Cytotoxicity against mouse RAW264.7 cell assessed as inhibition of growth measured for 48 hrs by resazurin microtiter assay; format: functional
# [16] = Selectivity index, ratio of GIC90 for cytotoxicity against human THP-1 cells to MIC90 for Antitubercular activity against Mycobacterium smegmatis mc2155 ATCC 700084; format: toxicity, cell-based; settings: read-out: Selectivity Index
# [17] = AUCinfinity in Sprague-Dawley rat at 5 mg/kg, po; format: ADME, organism-based; parameters: time infinity, route oral, dose 5 mg/kg; settings: in vivo
# [18] = Selectivity index, ratio of GIC90 for Cytotoxicity against […] human THP-1 cells to MIC90 for Antitubercular activity against Mycobacterium bovis BCG ATCC 35734; format: toxicity, cell-based; settings: read-out: Selectivity Index
# THP-1 = experiment: Cytotoxicity against human THP-1 cells assessed as inhibition of growth measured for 48 hrs by resazurin microtiter assay; format: functional
# [19] = AUCinfinity in Sprague-Dawley rat at 1 mg/kg, iv; format: ADME, organism-based; parameters: time infinity, route intravenous, dose 1 mg/kg; settings: in vivo
# [20] = Tlast in Sprague-Dawley rat at 1 mg/kg, iv; format: ADME, organism-based; settings: in vivo
# [21] = AUClast in Sprague-Dawley rat at 1 mg/kg, iv; format: ADME, organism-based; parameters: route intravenous, time 0 - last, dose 1 mg/kg; settings: in vivo
# [22] = Elimination half life in Sprague-Dawley rat at 5 mg/kg, po; format: ADME, organism-based; settings: in vivo, read-out: beta t1/2 (converted)
# [23] = Elimination half life in Sprague-Dawley rat at 1 mg/kg, iv; format: ADME, organism-based; settings: in vivo, read-out: beta t1/2 (converted)
# [24] = system: Mycolicibacterium smegmatis; experiment: Synergistic antibacterial activity against Mycobacterium smegmatis mc2155 ATCC 700084 assessed as fractional inhibitory concentration in presence of rifampicin by checker board assay; format: functional
# [25] = system: Mycolicibacterium smegmatis; experiment: Antibacterial activity against Mycobacterium smegmatic mc2155 ATCC 700084 assessed as inhibition of efflux pump using ethidium bromide as substrate measured every min for 45 mins; format: functional, organism-based
# [26] = Selectivity index, ratio of GIC90 for Cytotoxicity against mouse RAW264.7 cells MIC90 for Antitubercular activity against Mycobacterium aurum ATCC 10437; format: toxicity, cell-based; settings: read-out: Selectivity Index
# [27] = molecular target: T1, Salicyl-AMP ligase / salicyl-S-ArCP synthetase (Mycobacterium tuberculosis); experiment: Binding affinity to Mycobacterium tuberculosis MbtA assessed as change in thermal stability at 100 uM incubated for 1 hr in presence of ATP at pH 8.5 by thermo fluorometer analysis
# [28] = Selectivity index, ratio of GIC90 for Cytotoxicity against mouse RAW264.7 cells to MIC90 for Antitubercular activity against Mycobacterium bovis BCG ATCC 35734; format: toxicity, cell-based; settings: read-out: Selectivity Index
# [29] = Cmax in Sprague-Dawley rat at 1 mg/kg, iv; format: ADME, organism-based; parameters: route intravenous, dose 1 mg/kg; settings: in vivo
# Mycolicibacterium aurum [30] = experiment: Antimycobacterial activity against Mycobacterium aurum ATCC 10437 infected in RAW264.7 cells assessed as inhibition of growth at 16 ug/ml incubated for 72 hrs by SPOTi assay; format: functional; parameters: scale not given: the % may be the effect or the level left; settings: dose 16 µg/ml
# [31] = system: Mycolicibacterium smegmatis; experiment: Antibacterial activity against Mycobacterium smegmatis mc2155 ATCC 700084 cultured in iron supplemented medium assessed as inhibition of siderophore production at 4 ug/ml measured after 3 hrs by CAS assay relative to control; format: functional; parameters: scale not given: the % may be the effect or the level left; settings: dose 4 µg/ml
# [32] = Volume of distribution at steady state in Sprague-Dawley rat at 1 mg/kg, iv; format: ADME, organism-based; settings: in vivo
# [33] = Selectivity index, ratio of GIC90 for Cytotoxicity against human THP-1 cells to MIC90 for Antitubercular activity against Mycobacterium aurum ATCC 10437; format: toxicity, cell-based; settings: read-out: Selectivity Index
# [34] = system: Mycolicibacterium smegmatis; experiment: Bacteriostatic activity against Mycobacterium smegmatis mc2155 ATCC 700084 assessed as inhibition of bacterial growth preincubated for 48 hrs followed by agar surface scraped and transfer to GAST medium and measured after 5 days by HT-SPOTi assay; format: functional, organism-based; settings: time 7.0 day
Structure (SMILES),MIC90 [1],MIC90 [2],MIC90 (Mycolicibacterium aurum [3]),MIC90 [4],MIC90 [5],MIC90 (Mycolicibacterium aurum [6]),CLH [7],FIC [8],bioavailability [9],AUC(0-t) [10],selectivity ratio [11],Tm [12],Tlast [14],Cmax [15],GI90 (RAW264.7),selectivity ratio [16],AUC(0-inf) [17],selectivity ratio [18],GI90 (THP-1),AUC(0-inf) [19],other results
NC(=S)N1N=C(c2ccccc2O)CC1c1ccc(O)cc1 (configuration not stated),256 µg/mL,> 256 µg/mL,128 µg/mL,64 µg/mL,256 µg/mL,64 µg/mL,,,,,,,,,,,,,,,
NC(=S)N1N=C(c2ccccc2O)CC1c1ccccc1 (configuration not stated),128 µg/mL,256 µg/mL,64 µg/mL,4 µg/mL,128 µg/mL,64 µg/mL,,,,,,,,,,,,,,,
Oc1ccccc1C1=NNC(c2ccc(Cl)cc2)C1 (configuration not stated),128 µg/mL,64 µg/mL,128 µg/mL,16 µg/mL,4 µg/mL,16 µg/mL,84.8 mL/min/kg,0.6,21%,203 ng·h/mL,32,2 °C,24 h,51.6 ng/mL,128 µg/mL,16,215 ng·h/mL,16,64 µg/mL,197 ng·h/mL,Activity [13]: Active; Tlast [20]: 12 h; AUC(0-t) [21]: 190 ng·h/mL; half-life [22]: 6.06 h; half-life [23]: 4.76 h; FIC [24]: 1.12; Activity [25]: Active; selectivity ratio [26]: 8; Tm [27]: 2 °C; selectivity ratio [28]: 16; Cmax [29]: 448 ng/mL; Activity (Mycolicibacterium aurum [30]): 90%; Activity [31]: 54.7%; Vdss [32]: 11.5 kg/L; selectivity ratio [33]: 8
Oc1ccccc1C1=NNC(c2ccc(Br)cc2)C1 (configuration not stated),128 µg/mL,64 µg/mL,128 µg/mL,8 µg/mL,4 µg/mL,8 µg/mL,100 mL/min/kg,0.6,22%,167 ng·h/mL,32,2 °C,24 h,47.4 ng/mL,128 µg/mL,16,184 ng·h/mL,16,64 µg/mL,167 ng·h/mL,Activity [34]: Active; Tlast [20]: 12 h; AUC(0-t) [21]: 155 ng·h/mL; half-life [22]: 5.32 h; half-life [23]: 5.42 h; FIC [24]: 1.12; Activity [25]: Active; selectivity ratio [26]: 8; Tm [27]: 2.5 °C; selectivity ratio [28]: 16; Cmax [29]: 505 ng/mL; Activity (Mycolicibacterium aurum [30]): 90%; Activity [31]: 51.76%; Vdss [32]: 17.3 kg/L; selectivity ratio [33]: 8

# — ChEMBL document CHEMBL5046254, “Mycobactin Analogues with Excellent Pharmacokinetic Profile Demonstrate Potent Antitubercular Specific Activity and Exceptional Efflux Pump Inhibition” (J Med Chem, 2022)
